The results in this text go back to PubChem BioAssay (NCI).

The structures appear in SMILES notation.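 Cultured in 96-well plates, cells were exposed to test compound for 48 hours across five concentrations. The concentration for 50% growth inhibition is given as GI50. Definition used: TGI = concentration required for complete inhibition of growth.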 Bounds are passed on as bounds.

Some test systems named below: KM12 colon; SF-539 CNS; TK-10 renal; OVCAR-4 ovarian; EKVX NSCLC; HT29 colon; BT-549 breast; SNB-19 CNS; SNB-75 CNS; A498 renal.
Experiment in all cases: growth of human tumour cells (NCI), 48 h

On to `O=S(=O)([O-])c1ccc2c(c1)-c1nc-2nc2[n-]c(nc3nc(nc4[n-]c(n1)c1ccc(S(=O)(=O)[O-])cc41)-c1cc(S(=O)(=O)[O-])ccc1-3)c1ccc(S(=O)(=O)[O-])cc21.[Cu+2].[Na+]`, for which the GI50 was 8.36 µM in the assay with KM12 colon; above 100 µM in the assay with SF-539 CNS; above 55.9 µM in the assay on TK-10 renal; 5.31 µM with OVCAR-4 ovarian; above 60.4 µM with EKVX NSCLC; 3.32 µM in the assay on HT29 colon. Moreover, the GI50 was 47.4 µM in the assay on BT-549 breast, above 68.4 µM in the assay with SNB-19 CNS, above 67.3 µM in the assay with SNB-75 CNS and above 100 µM in the assay with A498 renal. Moreover, the TGI with KM12 colon is above 76.8 µM; in the assay on SF-539 CNS, above 100 µM; with TK-10 renal it was above 100 µM; with OVCAR-4 ovarian, above 80.4 µM; with EKVX NSCLC, above 100 µM; with HT29 colon, above 100 µM. In addition, the TGI in the assay on BT-549 breast, in the assay with SNB-19 CNS, in the assay with SNB-75 CNS and in the assay on A498 renal was above 100 µM each time.

`COC(C)(C)C1=CCC(C)CC1` (centres undefined): the TGI in the assay with KM12 colon, with SF-539 CNS, with TK-10 renal, in the assay on OVCAR-4 ovarian, with EKVX NSCLC and in the assay with HT29 colon was above 100 µM throughout. For the same compound, the TGI with BT-549 breast, in the assay with SNB-19 CNS, in the assay with SNB-75 CNS and with A498 renal was above 100 µM throughout.

On to `C[C@H]1c2cccc(O)c2C(O)=C2C(=O)[C@]3(O)C(O)=C(C(N)=O)C(=O)[C@@H](N(C)C)[C@@H]3[C@@H](O)[C@@H]21`, for which the GI50 is 3.37 µM with KM12 colon; 3.88 µM with SF-539 CNS; 4.83 µM in the assay with TK-10 renal; 3.34 µM in the assay with OVCAR-4 ovarian; 3.31 µM in the assay with EKVX NSCLC; 3.43 µM in the assay with HT29 colon. Also, the GI50 with BT-549 breast was 3.12 µM; in the assay on SNB-19 CNS it was 3.02 µM; in the assay on SNB-75 CNS, 1.81 µM; in the assay with A498 renal, 2.86 µM. Besides, the TGI is 11.5 µM in the assay on KM12 colon; 14.8 µM in the assay on SF-539 CNS; 47.2 µM in the assay on TK-10 renal; 42.1 µM with OVCAR-4 ovarian; 15.5 µM in the assay on EKVX NSCLC; 11.9 µM in the assay with HT29 colon. In addition, the TGI with BT-549 breast is 9.88 µM; with SNB-19 CNS it was 14.5 µM; with SNB-75 CNS, 6.66 µM; in the assay with A498 renal, 10.4 µM.

For the compound `CC1OC2CC(=O)OC2C2=C1C(=O)c1c(O)cccc1C2=O` (centres undefined), the GI50 was 0.176 µM with KM12 colon; 0.12 µM in the assay with SF-539 CNS; 0.0795 µM with TK-10 renal; 0.113 µM in the assay on OVCAR-4 ovarian; 0.407 µM in the assay with EKVX NSCLC; 0.0312 µM with HT29 colon. The GI50 in the assay with BT-549 breast was 0.177 µM; with SNB-19 CNS, 1.08 µM; in the assay on SNB-75 CNS, 0.13 µM; with A498 renal, 0.348 µM. Besides, the TGI in the assay on KM12 colon worked out at 0.392 µM; with SF-539 CNS it was 0.284 µM; with TK-10 renal it was 0.283 µM; in the assay on OVCAR-4 ovarian it was 0.253 µM; with EKVX NSCLC, 1.59 µM; in the assay on HT29 colon, 0.113 µM. For the same compound, the TGI with BT-549 breast was 0.368 µM; in the assay with SNB-19 CNS it was 2.48 µM; in the assay on SNB-75 CNS, 0.317 µM; in the assay on A498 renal it was 1.38 µM.

Turning to `COc1ccc(N(C)c2ncnc3occ(C)c23)cc1`, the GI50 is below 0.01 µM in the assay with KM12 colon; below 0.01 µM in the assay with SF-539 CNS; 55.6 µM in the assay on TK-10 renal; below 0.0311 µM in the assay with OVCAR-4 ovarian; below 0.01 µM in the assay on EKVX NSCLC; below 0.01 µM in the assay with HT29 colon. The GI50 with BT-549 breast was below 0.0244 µM; with SNB-19 CNS it was below 0.01 µM; with SNB-75 CNS, below 0.01 µM; in the assay on A498 renal it was below 0.01 µM. The TGI in the assay with SF-539 CNS was below 0.01 µM; in the assay with TK-10 renal, above 100 µM; in the assay with OVCAR-4 ovarian, above 100 µM; with EKVX NSCLC it was above 100 µM; in the assay with HT29 colon, 16.3 µM; with BT-549 breast, above 62.4 µM. The values for the TGI with SNB-19 CNS, with SNB-75 CNS and in the assay on A498 renal were above 100 µM, above 52 µM and below 0.01 µM, respectively.

Regarding `C=C(F)C(=O)N1CCN(c2nc(OC[C@@H]3CCCN3C)nc3c2CCN(c2cccc4cccc(Cl)c24)C3)C[C@@H]1CC#N`, the GI50 in the assay on KM12 colon is 1.2 µM; in the assay on SF-539 CNS it was 0.936 µM; with TK-10 renal, 1.1 µM; in the assay with OVCAR-4 ovarian, 0.994 µM; in the assay with EKVX NSCLC, 1.93 µM; in the assay on HT29 colon, 0.699 µM. Moreover, the GI50 in the assay on BT-549 breast was 2.19 µM; with SNB-19 CNS it was 1.19 µM; with SNB-75 CNS it was 1.17 µM; with A498 renal, 1.39 µM. Moreover, the TGI in the assay on KM12 colon was found to be 2.56 µM; in the assay with SF-539 CNS, 2.25 µM; with TK-10 renal it was 2.67 µM; in the assay with OVCAR-4 ovarian, 3.3 µM; in the assay with EKVX NSCLC, 7.53 µM; with HT29 colon, 2.42 µM. Besides, the TGI in the assay on BT-549 breast came out at 4.57 µM; with SNB-19 CNS, 5.32 µM; in the assay with SNB-75 CNS, 2.67 µM; with A498 renal it was 2.86 µM.

As for `CNCCNc1c2c(c(NCCNC)c3c(CN(C)C)c[nH]c13)C(=O)c1ccccc1C2=O`, the GI50 in the assay on KM12 colon was 2.8 µM; in the assay with SF-539 CNS, 4.46 µM; in the assay with TK-10 renal, 7.11 µM; in the assay with OVCAR-4 ovarian, 4.79 µM; in the assay on EKVX NSCLC it was 2.13 µM; in the assay with HT29 colon, 3.41 µM. Moreover, the GI50 was 6.04 µM with BT-549 breast, 12.2 µM with SNB-19 CNS, 7.14 µM in the assay on SNB-75 CNS and 1.41 µM in the assay with A498 renal. Besides, the TGI in the assay with KM12 colon was found to be 9.5 µM; in the assay on SF-539 CNS, 17.1 µM; in the assay on TK-10 renal, 15.9 µM; in the assay with OVCAR-4 ovarian it was 17.5 µM; in the assay with EKVX NSCLC, 5 µM; in the assay with HT29 colon, 31.6 µM. The TGI with BT-549 breast was 14.4 µM; in the assay on SNB-19 CNS, above 41.7 µM; with SNB-75 CNS it was 22 µM; in the assay on A498 renal it was 6.27 µM.

For `CC(C)c1ccc(Nc2ccc3c(OCCCN4CCN(C)CC4)cccc3n2)cc1`, the GI50 is 11.3 µM in the assay on KM12 colon; 11.1 µM in the assay on SF-539 CNS; 16.5 µM in the assay with TK-10 renal; 13.9 µM in the assay on OVCAR-4 ovarian; 14 µM in the assay on EKVX NSCLC; 2.16 µM in the assay with HT29 colon. Further, the GI50 is 12.3 µM with BT-549 breast, 12.5 µM in the assay with SNB-19 CNS, 12.8 µM in the assay with SNB-75 CNS and 16.4 µM in the assay on A498 renal. For the same compound, the TGI was determined as 25.6 µM in the assay with KM12 colon; 30 µM with SF-539 CNS; 30.7 µM in the assay with TK-10 renal; 28.5 µM in the assay with OVCAR-4 ovarian; 28.3 µM with EKVX NSCLC; 4.92 µM with HT29 colon. Further, the TGI in the assay on BT-549 breast is 28.7 µM; with SNB-19 CNS, 30 µM; with SNB-75 CNS, 30 µM; in the assay on A498 renal, 36.8 µM.
